In US20260078122A1, “INDAZOLE COMPOUNDS AS PKMYT1 KINASE INHIBITORS” (Hoffmann-La Roche Inc., priority 2023, published 2026):

Molecular target: T1, recombinant human Myt1 (full length PKMYT1) (Homo sapiens, UniProt Q99640)
T1 sequence (Q99640 1-499): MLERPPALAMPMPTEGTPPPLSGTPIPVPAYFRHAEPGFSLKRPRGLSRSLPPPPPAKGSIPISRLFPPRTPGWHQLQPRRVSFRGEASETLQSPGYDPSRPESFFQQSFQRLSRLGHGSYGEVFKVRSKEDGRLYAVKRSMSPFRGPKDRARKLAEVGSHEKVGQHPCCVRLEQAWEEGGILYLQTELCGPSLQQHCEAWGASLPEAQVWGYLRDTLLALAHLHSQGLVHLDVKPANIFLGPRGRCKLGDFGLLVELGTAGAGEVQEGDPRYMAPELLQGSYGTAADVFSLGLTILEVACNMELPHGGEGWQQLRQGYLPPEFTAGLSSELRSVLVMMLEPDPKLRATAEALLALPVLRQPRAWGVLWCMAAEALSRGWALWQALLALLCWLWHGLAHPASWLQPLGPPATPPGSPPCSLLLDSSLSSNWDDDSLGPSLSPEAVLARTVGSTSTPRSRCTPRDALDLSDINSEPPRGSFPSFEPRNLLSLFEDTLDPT
Experiment: ADP-Glo assay (Myt1 kinase activity)

Cc1nc2c(-c3ccc(F)c4[nH]ncc34)c(N)c(=O)[nH]c2c(Cl)c1C [Example 57, 3-Amino-8-chloro-4-(7-fluoro-1H-indazol-4-yl)-6,7-dimethyl-1H-1,5-naphthyridin-2-one]
IC50: 11.7 nM

Cc1cc2[nH]c(=O)c(N)c(-c3ccc(F)c4[nH]ncc34)c2nc1OCC1(C#N)CC1 [Example 58, 1-[[7-Amino-8-(7-fluoro-1H-indazol-4-yl)-3-methyl-6-oxo-5H-1,5-naphthyridin-2-yl]oxymethyl]cyclopropanecarbonitrile]
IC50: < 10 nM

Cc1cc2[nH]c(=O)c(N)c(-c3ccc(F)c4[nH]ncc34)c2nc1OCC(F)F [Example 059, 3-Amino-6-(2,2-difluoroethoxy)-4-(7-fluoro-1H-indazol-4-yl)-7-methyl-1H-1,5-naphthyridin-2-one]
IC50: < 10 nM

COc1nc2c(-c3ccc(F)c4[nH]ncc34)c(N)c(=O)[nH]c2cc1C [Example 060, 3-Amino-4-(7-fluoro-1H-indazol-4-yl)-6-methoxy-7-methyl-1H-1,5-naphthyridin-2-one]
IC50: < 10 nM

Cc1cc2[nH]c(=O)c(N)c(-c3ccc(F)c4[nH]ncc34)c2nc1OC(F)F [Example 062, 3-Amino-6-(difluoromethoxy)-4-(7-fluoro-1H-indazol-4-yl)-7-methyl-1H-1,5-naphthyridin-2-one]
IC50: 14.6 nM

Cc1cc2[nH]c(=O)c(N)c(-c3ccc(F)c4[nH]ncc34)c2nc1OCC12CC(C1)C2 [Example 063, 3-Amino-6-(1-bicyclo[1.1.1]pentanylmethoxy)-4-(7-fluoro-1H-indazol-4-yl)-7-methyl-1H-1,5-naphthyridin-2-one]
IC50: 9.7 nM

Cc1cc2[nH]c(=O)c(N)c(-c3ccc(F)c4[nH]ncc34)c2nc1OC(C)C [Example 064, 3-Amino-4-(7-fluoro-1H-indazol-4-yl)-6-isopropoxy-7-methyl-1H-1,5-naphthyridin-2-one]
IC50: < 10 nM

CCCOc1nc2c(-c3ccc(F)c4[nH]ncc34)c(N)c(=O)[nH]c2cc1C [Example 065, 3-Amino-4-(7-fluoro-1H-indazol-4-yl)-7-methyl-6-propoxy-1H-1,5-naphthyridin-2-one]
IC50: 14.7 nM

Cc1cc2[nH]c(=O)c(N)c(-c3ccc(F)c4[nH]ncc34)c2nc1OCC(F)(F)F [Example 066, 3-Amino-4-(7-fluoro-1H-indazol-4-yl)-7-methyl-6-(2,2,2-trifluoroethoxy)-1H-1,5-naphthyridin-2-one]
IC50: 11.6 nM

COC(=O)C1CC(Oc2nc3c(-c4ccc(F)c5[nH]ncc45)c(N)c(=O)[nH]c3cc2C)C1 (stereo not drawn) [Example 067, Methyl 3-[[7-amino-8-(7-fluoro-1H-indazol-4-yl)-3-methyl-6-oxo-5H-1,5-naphthyridin-2-yl]oxy]cyclobutanecarboxylate]
IC50: 24.4 nM

Cc1cc2[nH]c(=O)c(N)c(-c3ccc(F)c4[nH]ncc34)c2nc1OCCN(C)C [Example 068, 3-Amino-6-[2-(dimethylamino)ethoxy]-4-(7-fluoro-1H-indazol-4-yl)-7-methyl-1H-1,5-naphthyridin-2-one]
IC50: 17.5 nM

COCC#Cc1nc2c(-c3ccc(F)c4[nH]ncc34)c(N)c(=O)[nH]c2cc1C [Example 071, 3-Amino-4-(7-fluoro-1H-indazol-4-yl)-6-(3-methoxyprop-1-ynyl)-7-methyl-1H-1,5-naphthyridin-2-one]
IC50: 13.1 nM

COC(C)(C)C#Cc1nc2c(-c3ccc(F)c4[nH]ncc34)c(N)c(=O)[nH]c2cc1C [Example 072, 3-Amino-4-(7-fluoro-1H-indazol-4-yl)-6-(3-methoxy-3-methyl-but-1-ynyl)-7-methyl-1H-1,5-naphthyridin-2-one]
IC50: 11.2 nM

Cc1cc2[nH]c(=O)c(N)c(-c3ccc(F)c4[nH]ncc34)c2nc1OCC(C)(C)O [Example 078, 3-Amino-4-(7-fluoro-1H-indazol-4-yl)-6-(2-hydroxy-2-methyl-propoxy)-7-methyl-1H-1,5-naphthyridin-2-one]
IC50: 17.2 nM

Cc1cc2[nH]c(=O)c(N)c(-c3ccc(F)c4[nH]ncc34)c2nc1OC1CC(C#N)C1 (stereo not drawn) [Example 079, 3-[[7-Amino-8-(7-fluoro-1H-indazol-4-yl)-3-methyl-6-oxo-5H-1,5-naphthyridin-2-yl]oxy]cyclobutanecarbonitrile]
IC50: 17.8 nM

Cc1cc2[nH]c(=O)c(N)c(-c3ccc(F)c4[nH]ncc34)c2nc1O[C@H]1C[C@H](F)C1 [Example 080, trans-3-Amino-6-(3-fluorocyclobutoxy)-4-(7-fluoro-1H-indazol-4-yl)-7-methyl-1H-1,5-naphthyridin-2-one]
IC50: 21.1 nM

Cc1cc2[nH]c(=O)c(N)c(-c3ccc(F)c4[nH]ncc34)c2nc1OCCC(F)F [Example 081, 3-Amino-6-(3,3-difluoropropoxy)-4-(7-fluoro-1H-indazol-4-yl)-7-methyl-1H-1,5-naphthyridin-2-one]
IC50: 14.6 nM

COC(=O)c1nc2c(-c3ccc(F)c4[nH]ncc34)c(N)c(=O)[nH]c2cc1C [Example 087, Methyl 7-amino-8-(7-fluoro-1H-indazol-4-yl)-3-methyl-6-oxo-5H-1,5-naphthyridine-2-carboxylate]
IC50: 12.3 nM

Cc1cc2[nH]c(=O)c(N)c(-c3ccc(F)c4[nH]ncc34)c2nc1C(C)(C)O [Example 088, 3-Amino-4-(7-fluoro-1H-indazol-4-yl)-6-(1-hydroxy-1-methyl-ethyl)-7-methyl-1H-1,5-naphthyridin-2-one]
IC50: 47 nM

Cc1cc2[nH]c(=O)c(N)c(-c3ccc(F)c4[nH]ncc34)c2nc1C1COC1 [Example 093, 3-Amino-4-(7-fluoro-1H-indazol-4-yl)-7-methyl-6-(oxetan-3-yl)-1H-1,5-naphthyridin-2-one]
IC50: 11.9 nM

Nc1c(-c2ccc(F)c3[nH]ncc23)c2nc(Cl)c(C3CC3)cc2[nH]c1=O [Example 095, 3-Amino-6-chloro-7-cyclopropyl-4-(7-fluoro-1H-indazol-4-yl)-1H-1,5-naphthyridin-2-one]
IC50: < 10 nM

Cc1cc2[nH]c(=O)c(N)c(-c3ccc(F)c4[nH]ncc34)c2nc1OC1CC(C(C)(C)O)C1 (stereo not drawn) [Example 096, 3-Amino-4-(7-fluoro-1H-indazol-4-yl)-6-[3-(1-hydroxy-1-methyl-ethyl)cyclobutoxy]-7-methyl-1H-1,5-naphthyridin-2-one]
IC50: 65.2 nM

Cc1cc2[nH]c(=O)c(N)c(-c3ccc(F)c4[nH]ncc34)c2nc1C(F)(F)F [Example 097, 3-Amino-4-(7-fluoro-1H-indazol-4-yl)-7-methyl-6-(trifluoromethyl)-1H-1,5-naphthyridin-2-one]
IC50: 24.9 nM

COc1cc(C)cc2[nH]c(=O)c(N)c(-c3ccc(F)c4[nH]ncc34)c12 [Example 102, 3-Amino-4-(7-fluoro-1H-indazol-4-yl)-5-methoxy-7-methyl-1H-quinolin-2-one]
IC50: 16 nM

Cc1cc(Cl)c2c(-c3ccc(F)c4[nH]ncc34)c(N)c(=O)[nH]c2c1 [Example 103, 3-Amino-5-chloro-4-(7-fluoro-1H-indazol-4-yl)-7-methyl-1H-quinolin-2-one]
IC50: < 10 nM

Cc1cc2[nH]c(=O)c(N)c(-c3ccc(F)c4[nH]ncc34)c2cc1Br [Example 104, 3-Amino-6-bromo-4-(7-fluoro-1H-indazol-4-yl)-7-methyl-1H-quinolin-2-one]
IC50: 15.7 nM

Cc1cc2[nH]c(=O)c(N)c(-c3ccc(F)c4[nH]ncc34)c2cc1N1CC2(COC2)C1 [Example 105, 3-Amino-4-(7-fluoro-1H-indazol-4-yl)-7-methyl-6-(2-oxa-6-azaspiro[3.3]heptan-6-yl)-1H-quinolin-2-one]
IC50: 18.5 nM
